Test results: patent publication US12202805B2, “Process for preparing (5S)-{[2-(4-carboxyphenyl)ethyl] |2-(2-{|3-chloro-4'-(trifluoromethyl)biphenyl-4-yl]methoxy}phenyl)ethyl]aminol-5,6,7,8-tetrahydroquinoline-2-carboxylic acid and its crystalline forms for use as pharmaceutically active compound” (Bayer Aktiengesellschaft, priority 2021, dated 2025)
Where “and” joins values, the source holds several entries; their conditions need not be identical. Equal entries are not always repeated.

System: thromboxane A2 challenged PAH-minipig
Experiment: Haemodynamics in the anesthetized thromboxane challenged minipig, intratracheal dry powder (PAP, BP)
Type: in vivo, Göttingen Minipigs
Conditions: 375 μg/kg i.t.
Experimental: Healthy Göttingen Minipigs® Ellegaard (Ellegaard, Denmark) of both sexes and having a weight of 2-6 kg were used. The animals were sedated by i.m. administration of about 25 mg/kg ketamine and about 10 mg/kg azaperone. Anaesthesia was initiated by i.v. administration of about 2 mg/kg ketamine and about 0.3 mg/kg midazolam. Maintenance of anaesthesia was by i.v. administration of about 7.5-30 mg/kg/h ketamine and about 1-4 mg/kg/h midazolam (rate of infusion 1-4 ml/kg/h) and about 150 μg/kg/h pancuronium bromide (for example Pancuronium-Actavis). After intubation, the animals were ventilated by the ventilator at a constant respiratory volume (10-12 ml/kg, 35 breaths/min; Avea®, Viasys Healthcare, USA, or Engström Carestation, GE Healthcare, Freiburg, Germany) such that an end-tidal CO2 concentration of about 5% was achieved. Ventilation was performed with room air, enriched with about 40% oxygen (normoxia). For the measurement of the haemodynamic parameters such as pulmonary arterial pressure (PAP), blood pressure (BP) and heart rate (HR), catheters were inserted into the carotid artery to measure the blood pressure, and a Swan-Ganz® catheter was introduced in a flow-directed manner via the jugular vein into the pulmonary artery. The haemodynamic signals were recorded and evaluated by means of pressure transducers (Combitransducer, B. Braun, Melsungen, Germany)/amplifiers and Ponemah® as data acquisition software.
As reference pure Lactose vehicle was applied in the beginning of each experiment.

SMILES: O.O=C(O)c1ccc(CCN(CCc2ccccc2OCc2ccc(-c3ccc(C(F)(F)F)cc3)cc2Cl)[C@H]2CCCc3nc(C(=O)O)ccc32)cc1.O=C(O)c1ccc(CCN(CCc2ccccc2OCc2ccc(-c3ccc(C(F)(F)F)cc3)cc2Cl)[C@H]2CCCc3nc(C(=O)O)ccc32)cc1 [example 6a, (5S)—{[2-(4-Carboxyphenyl)ethyl][2-(2-{[3-chloro-4′-(trifluoromethyl)biphenyl-4-yl]methoxy}phenyl)-ethyl]amino}-5,6,7,8-tetrahydroquinoline-2-carboxylic acid semihydrate]
- PAP, % changes vs. prevalues (time 160 min): 59.9% and 77.1% and 73.1%
- BP (mean) (time 170 min): 95 mmHg and 79 mmHg
- BP, % changes vs. prevalues (time 170 min): 95.6% and 99.7% and 107.4%
- PAP(mean) (time 170 min): 24.0 mmHg and 32.4 mmHg and 29.9 mmHg
- PAP, % changes vs. prevalues (time 170 min): 58.6% and 76.7% and 72.3%
- BP (mean) (time 180 min): 94 mmHg and 79 mmHg
- BP, % changes vs. prevalues (time 180 min): 94.6% and 99.7% and 106.3%
- PAP(mean) (time 180 min): 23.7 mmHg and 31.9 mmHg and 29.7 mmHg
- PAP, % changes vs. prevalues (time 180 min): 58.0% and 75.4% and 71.8%
- BP (mean) (time 190 min): 94 mmHg and 85 mmHg and 93 mmHg
- BP, % changes vs. prevalues (time 190 min): 94.6% and 108.5% and 105.2%
- PAP(mean) (time 190 min): 24.4 mmHg and 32.4 mmHg and 29.2 mmHg
- PAP, % changes vs. prevalues (time 190 min): 59.5% and 78.4% and 70.7%
- BP (mean) (time 200 min): 92 mmHg and 85 mmHg
- BP, % changes vs. prevalues (time 200 min): 92.6% and 107.3% and 104.0%
- PAP(mean) (time 200 min): 24.8 mmHg and 32.4 mmHg and 29.4 mmHg
- PAP, % changes vs. prevalues (time 200 min): 60.5% and 76.8% and 71.1%
- BP (mean) (time 210 min): 90 mmHg and 81 mmHg and 91 mmHg
- BP, % changes vs. prevalues (time 210 min): 90.6% and 102.2% and 102.9%
- PAP(mean) (time 210 min): 24.8 mmHg and 31.9 mmHg and 29.2 mmHg
- PAP, % changes vs. prevalues (time 210 min): 60.6% and 75.5% and 70.8%
- BP (mean) (time 220 min): 89 mmHg and 79 mmHg
- BP, % changes vs. prevalues (time 220 min): 89.6% and 99.7% and 100.6%
- PAP(mean) (time 220 min): 24.7 mmHg and 31.7 mmHg and 29.1 mmHg
- PAP, % changes vs. prevalues (time 220 min): 60.3% and 75.1% and 70.3%
- BP (mean) (time 230 min): 87 mmHg and 78 mmHg and 89 mmHg
- BP, % changes vs. prevalues (time 230 min): 87.6% and 98.4% and 100.6%
- PAP(mean) (time 230 min): 24.0 mmHg and 31.3 mmHg and 28.6 mmHg
- PAP, % changes vs. prevalues (time 230 min): 58.7% and 74.1% and 69.1%
- BP (mean) (time 240 min): 87 mmHg and 77 mmHg
- BP, % changes vs. prevalues (time 240 min): 87.6% and 97.2% and 98.4%
- PAP(mean) (time 240 min): 24.1 mmHg and 31.3 mmHg and 28.1 mmHg
- PAP, % changes vs. prevalues (time 240 min): 58.9% and 74.2% and 68.0%
- BP (mean) (time 250 min): 85 mmHg and 76 mmHg
- BP, % changes vs. prevalues (time 250 min): 85.5% and 95.9% and 96.1%
- PAP(mean) (time 250 min): 24.2 mmHg and 30.7 mmHg and 28.1 mmHg
- PAP, % changes vs. prevalues (time 250 min): 59.0% and 72.7% and 67.9%
- BP (mean) (time 260 min): 85 mmHg and 76 mmHg and 84 mmHg
- BP, % changes vs. prevalues (time 260 min): 85.5% and 95.9% and 95.0%
- PAP(mean) (time 260 min): 24.1 mmHg and 30.6 mmHg and 28.1 mmHg
- PAP, % changes vs. prevalues (time 260 min): 58.8% and 72.5% and 68.0%
- BP (mean) (time 270 min): 85 mmHg and 76 mmHg and 87 mmHg
- BP, % changes vs. prevalues (time 270 min): 85.5% and 95.9% and 98.4%
- PAP(mean) (time 270 min): 24.4 mmHg and 30.6 mmHg and 27.8 mmHg
- PAP, % changes vs. prevalues (time 270 min): 59.6% and 72.4% and 67.3%
- BP (mean) (time 280 min): 85 mmHg and 75 mmHg and 84 mmHg
- BP, % changes vs. prevalues (time 280 min): 85.5% and 94.6% and 95.0%
- PAP(mean) (time 280 min): 24.3 mmHg and 30.7 mmHg and 28.0 mmHg
- PAP, % changes vs. prevalues (time 280 min): 59.3% and 72.6% and 67.8%
- BP (mean) (time 290 min): 84 mmHg and 75 mmHg and 83 mmHg
- BP, % changes vs. prevalues (time 290 min): 84.5% and 94.6% and 93.9%
- PAP(mean) (time 290 min): 24.1 mmHg and 30.7 mmHg and 27.6 mmHg
- PAP, % changes vs. prevalues (time 290 min): 58.8% and 72.6% and 66.7%
- BP (mean) (time 300 min): 83 mmHg and 77 mmHg and 82 mmHg
- BP, % changes vs. prevalues (time 300 min): 83.5% and 97.2% and 92.7%
- PAP(mean) (time 300 min): 23.7 mmHg and 30.5 mmHg and 27.7 mmHg
- PAP, % changes vs. prevalues (time 300 min): 57.9% and 72.2% and 67.1%
